# According to paper PMC2866084 (Journal of medicinal chemistry, 2010):
# Legend:
# in vivo = details: male, CD-1, mouse, po, 50 mg/kg
# [1] = Double-sink PAMPA permeability; assay type: in vitro ADME; details: pH 7.4
# [2] = test system: Salmonella typhimurium tester strains TA98 and TA100; experiment: Ames assay for mutagenicity and cytotoxicity screening; assay type: cell-based; details: TA98 and TA100, with and without S-9
# CD-1 mice = experiment: Dose range-finding toxicity study in male and female CD-1 mice; details: for histopathology: after 7 days oral treatment; for body weights compared to vehicle-treated controls: all treated mice, 7 days oral
SMILES,concentration at 24 h (in vivo),"Papp at 30 min, 50 μM [1]","Bacterial mutagenicity, AMES test [2]",histopathology (CD-1 mice),body weights compared to vehicle-treated controls (CD-1 mice)
CCN(CC)CCCC(C)Nc1ccnc2cc(Oc3ccccc3)ccc12 (centres unmarked) [Compound 1],< 11.8 nM,–,–,–,–
CCN(CC)CCCC(C)Nc1ccnc2cc(C(F)(F)F)ccc12 (centres unmarked) [Compound 3],–,2700 ± 107 ×10⁻⁶ cm/s,–,–,–
CCCN(CCCNc1ccnc2cc(Cl)ccc12)CC1CC1 [Compound 4],–,1110 ± 176 ×10⁻⁶ cm/s,no increase in mutagenicity,–,–
"Clc1ccc2c(NCCCNCc3cccc4c3OCO4)ccnc2c1 [Compound 18, N-Benzo[1,3]dioxol-4-ylmethyl-N′-(7-chloro-quinolin-4-yl)-propane-1,3-diamine]",–,2400 ± 652 ×10⁻⁶ cm/s,no increase in mutagenicity,no findings related to the administration of the test articles,remained normal
"COc1cccc(CNCCCNc2ccnc3cc(Cl)ccc23)c1O [Compound 20, 2-{[3-(7-Chloro-quinolin-4-ylamino)-propylamino]-methyl}-6-methoxy-phenol]",–,1360 ± 214 ×10⁻⁶ cm/s,–,no findings related to the administration of the test articles,remained normal
